{"source": "paper PMC8500670", "about": "“A selective WDR5 degrader inhibits acute myeloid leukemia in patient-derived mouse models” (Science translational medicine, 2021)", "assay_in_all_cases": "biochemical", "design_in_all_cases": "GPCR, ion channel and transporter panel, per cent inhibition of binding, mean of four", "key": {"Alpha2A": {"target": "T1, Alpha2A (Homo sapiens, UniProt P08913)", "T1 construct": "gene ADRA2A", "method": "(§1) We next assessed selectivity of MS67 against 22 protein methyltransferases (table S2) and a broad panel of common drug targets including 45 kinases (table S3) and 44 G protein–coupled receptors (GPCR), ion channels, and transporters (table S4). […] We subsequently determined that MS67 had moderate binding affinity (Ki = 1.0 ± 0.8 μM) to Sigma 2 receptor (fig. S10)."}, "DAT": {"target": "T2, DAT (Homo sapiens, UniProt Q01959)", "T2 construct": "gene SLC6A3", "T2 sequence (Q01959 whole entry)": "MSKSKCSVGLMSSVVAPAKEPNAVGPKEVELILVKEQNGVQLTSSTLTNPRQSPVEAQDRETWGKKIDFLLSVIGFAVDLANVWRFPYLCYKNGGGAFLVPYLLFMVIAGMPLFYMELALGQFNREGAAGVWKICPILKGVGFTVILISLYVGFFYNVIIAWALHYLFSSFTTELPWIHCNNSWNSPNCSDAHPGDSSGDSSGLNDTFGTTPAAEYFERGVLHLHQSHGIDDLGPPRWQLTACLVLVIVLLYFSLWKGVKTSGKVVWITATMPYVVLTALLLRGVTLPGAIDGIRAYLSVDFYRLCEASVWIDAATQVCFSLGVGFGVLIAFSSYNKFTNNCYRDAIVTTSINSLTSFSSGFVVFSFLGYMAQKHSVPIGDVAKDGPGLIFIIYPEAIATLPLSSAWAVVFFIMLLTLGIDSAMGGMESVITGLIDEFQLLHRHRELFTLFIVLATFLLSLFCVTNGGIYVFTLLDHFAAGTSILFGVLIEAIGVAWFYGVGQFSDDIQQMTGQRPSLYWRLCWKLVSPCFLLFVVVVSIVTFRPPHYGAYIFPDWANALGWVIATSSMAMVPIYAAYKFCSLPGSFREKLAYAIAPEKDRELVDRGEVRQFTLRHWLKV", "method": "as §1"}, "5-HT5A": {"target": "T3, 5-HT5A (Homo sapiens, UniProt P47898)", "T3 construct": "gene HTR5A", "method": "as §1"}, "D5": {"target": "T4, D5 (Homo sapiens, UniProt P21918)", "T4 construct": "gene DRD5", "method": "as §1"}, "5-HT7A": {"target": "T5, 5-HT7A (Homo sapiens, UniProt P34969)", "T5 construct": "gene HTR7; isoform 7A", "T5 sequence (P34969 whole entry, canonical isoform)": "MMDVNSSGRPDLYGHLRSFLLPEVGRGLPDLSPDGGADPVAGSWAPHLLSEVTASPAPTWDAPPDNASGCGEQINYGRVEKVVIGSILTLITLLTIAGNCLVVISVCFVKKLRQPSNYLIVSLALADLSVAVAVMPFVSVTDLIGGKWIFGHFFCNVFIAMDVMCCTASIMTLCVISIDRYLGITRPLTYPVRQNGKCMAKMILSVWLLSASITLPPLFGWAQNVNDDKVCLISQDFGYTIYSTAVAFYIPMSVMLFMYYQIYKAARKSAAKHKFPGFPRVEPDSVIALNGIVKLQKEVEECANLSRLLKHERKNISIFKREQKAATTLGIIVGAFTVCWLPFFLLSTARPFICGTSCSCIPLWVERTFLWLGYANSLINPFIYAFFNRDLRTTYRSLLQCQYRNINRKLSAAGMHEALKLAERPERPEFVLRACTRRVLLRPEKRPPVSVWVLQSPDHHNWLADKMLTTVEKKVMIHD", "method": "as §1"}, "D4": {"target": "T6, D4 (Homo sapiens, UniProt P21917)", "T6 construct": "gene DRD4", "T6 sequence (P21917 whole entry)": "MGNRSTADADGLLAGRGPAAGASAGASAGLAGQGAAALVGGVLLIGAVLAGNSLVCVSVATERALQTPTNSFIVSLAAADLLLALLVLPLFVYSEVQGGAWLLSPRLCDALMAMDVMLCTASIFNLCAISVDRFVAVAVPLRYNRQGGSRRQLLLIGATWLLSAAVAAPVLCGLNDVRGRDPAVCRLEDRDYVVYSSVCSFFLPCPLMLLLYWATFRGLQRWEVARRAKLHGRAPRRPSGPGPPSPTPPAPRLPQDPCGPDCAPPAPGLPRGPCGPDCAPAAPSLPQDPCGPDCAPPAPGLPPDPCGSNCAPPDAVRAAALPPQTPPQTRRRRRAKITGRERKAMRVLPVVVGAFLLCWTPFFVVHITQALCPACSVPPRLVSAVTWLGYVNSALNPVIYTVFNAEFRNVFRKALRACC", "method": "as §1"}, "Alpha1B": {"target": "T7, Alpha1B (Homo sapiens, UniProt P35368)", "T7 construct": "gene ADRA1B", "method": "as §1"}, "MOR": {"target": "T8, MOR (Homo sapiens, UniProt P35372)", "T8 construct": "gene OPRM1", "method": "as §1"}, "Alpha2C": {"target": "T9, Alpha2C (Homo sapiens, UniProt P18825)", "T9 construct": "gene ADRA2C", "method": "as §1"}, "Beta3": {"target": "T10, Beta3 (Homo sapiens, UniProt P13945)", "T10 construct": "gene ADRB3", "T10 sequence (P13945 whole entry)": "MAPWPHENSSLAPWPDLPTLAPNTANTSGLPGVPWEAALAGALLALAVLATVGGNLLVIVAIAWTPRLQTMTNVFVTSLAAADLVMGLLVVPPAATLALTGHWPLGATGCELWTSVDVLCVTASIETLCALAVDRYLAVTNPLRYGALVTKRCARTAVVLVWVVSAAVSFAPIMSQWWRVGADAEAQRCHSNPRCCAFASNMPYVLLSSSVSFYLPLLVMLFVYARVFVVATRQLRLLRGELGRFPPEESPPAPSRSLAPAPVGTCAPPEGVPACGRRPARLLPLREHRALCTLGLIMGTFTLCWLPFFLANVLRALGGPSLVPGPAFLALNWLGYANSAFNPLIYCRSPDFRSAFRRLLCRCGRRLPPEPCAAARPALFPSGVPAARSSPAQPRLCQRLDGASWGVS", "method": "as §1"}, "SERT": {"target": "T11, SERT (Homo sapiens, UniProt P31645)", "T11 construct": "gene SLC6A4", "method": "as §1"}, "D3": {"target": "T12, D3 (Homo sapiens, UniProt P35462)", "T12 construct": "gene DRD3", "T12 sequence (P35462 whole entry)": "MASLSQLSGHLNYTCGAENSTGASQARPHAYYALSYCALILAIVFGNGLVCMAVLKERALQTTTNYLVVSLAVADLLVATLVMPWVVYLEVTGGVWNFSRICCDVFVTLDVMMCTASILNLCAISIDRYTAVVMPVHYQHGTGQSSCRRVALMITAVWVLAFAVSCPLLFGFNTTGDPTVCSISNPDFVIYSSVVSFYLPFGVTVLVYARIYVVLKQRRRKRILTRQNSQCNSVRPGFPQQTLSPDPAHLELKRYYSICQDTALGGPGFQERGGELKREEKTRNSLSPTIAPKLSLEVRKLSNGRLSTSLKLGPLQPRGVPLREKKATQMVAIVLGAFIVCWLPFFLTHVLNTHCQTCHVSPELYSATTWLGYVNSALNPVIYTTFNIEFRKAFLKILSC", "method": "as §1"}, "5-HT1A": {"target": "T13, 5-HT1A (Homo sapiens, UniProt P08908)", "T13 construct": "gene HTR1A", "T13 sequence (P08908 whole entry)": "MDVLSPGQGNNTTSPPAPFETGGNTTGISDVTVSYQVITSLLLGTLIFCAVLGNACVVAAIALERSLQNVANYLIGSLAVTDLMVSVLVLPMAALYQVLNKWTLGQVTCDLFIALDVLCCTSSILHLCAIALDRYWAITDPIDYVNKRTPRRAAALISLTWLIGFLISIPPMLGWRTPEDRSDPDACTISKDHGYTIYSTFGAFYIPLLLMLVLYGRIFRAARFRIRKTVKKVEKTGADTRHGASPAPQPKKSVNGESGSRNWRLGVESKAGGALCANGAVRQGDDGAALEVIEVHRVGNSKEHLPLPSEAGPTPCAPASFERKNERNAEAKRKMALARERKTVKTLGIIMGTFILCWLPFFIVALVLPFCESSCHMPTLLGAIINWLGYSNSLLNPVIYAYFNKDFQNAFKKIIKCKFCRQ", "method": "as §1"}, "H2": {"target": "T14, H2 (Homo sapiens, UniProt P25021)", "T14 construct": "gene HRH2", "method": "as §1"}, "Beta1": {"target": "T15, Beta1 (Homo sapiens, UniProt P08588)", "T15 construct": "gene ADRB1", "method": "as §1"}, "5-HT6": {"target": "T16, 5-HT6 (Homo sapiens, UniProt P50406)", "T16 construct": "gene HTR6", "T16 sequence (P50406 whole entry)": "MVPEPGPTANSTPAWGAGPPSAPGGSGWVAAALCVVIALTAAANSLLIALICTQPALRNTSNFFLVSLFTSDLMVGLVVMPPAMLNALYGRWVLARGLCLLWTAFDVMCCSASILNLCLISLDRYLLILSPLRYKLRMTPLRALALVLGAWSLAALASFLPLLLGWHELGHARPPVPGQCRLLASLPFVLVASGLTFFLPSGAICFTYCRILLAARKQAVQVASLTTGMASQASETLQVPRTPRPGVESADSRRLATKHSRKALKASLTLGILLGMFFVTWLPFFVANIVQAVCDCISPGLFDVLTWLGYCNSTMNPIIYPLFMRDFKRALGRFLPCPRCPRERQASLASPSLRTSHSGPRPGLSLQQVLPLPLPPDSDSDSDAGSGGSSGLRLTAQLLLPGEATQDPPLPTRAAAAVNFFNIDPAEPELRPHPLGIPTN", "method": "as §1"}, "D2": {"target": "T17, D2 (Homo sapiens, UniProt P14416)", "T17 construct": "gene DRD2", "method": "as §1"}, "5-HT2B": {"target": "T18, 5-HT2B (Homo sapiens, UniProt P41595)", "T18 construct": "gene HTR2B", "T18 sequence (P41595 whole entry)": "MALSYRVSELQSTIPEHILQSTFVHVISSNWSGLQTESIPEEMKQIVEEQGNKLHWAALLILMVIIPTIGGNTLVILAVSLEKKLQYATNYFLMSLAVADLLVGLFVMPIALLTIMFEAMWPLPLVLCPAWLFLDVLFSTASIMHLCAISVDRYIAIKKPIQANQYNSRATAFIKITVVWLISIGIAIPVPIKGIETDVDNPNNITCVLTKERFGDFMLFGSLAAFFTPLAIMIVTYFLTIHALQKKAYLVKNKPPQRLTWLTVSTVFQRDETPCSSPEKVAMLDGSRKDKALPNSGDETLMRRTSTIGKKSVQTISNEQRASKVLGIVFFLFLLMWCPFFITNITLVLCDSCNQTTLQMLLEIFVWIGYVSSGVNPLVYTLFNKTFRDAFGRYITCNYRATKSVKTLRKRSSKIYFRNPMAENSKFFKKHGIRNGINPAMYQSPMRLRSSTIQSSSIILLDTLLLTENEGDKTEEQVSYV", "method": "as §1"}, "M3": {"target": "T19, M3 (Homo sapiens, UniProt P20309)", "T19 construct": "gene CHRM3", "method": "as §1"}, "5-HT2A": {"target": "T20, 5-HT2A (Homo sapiens, UniProt P28223)", "T20 construct": "gene HTR2A", "T20 sequence (P28223 whole entry)": "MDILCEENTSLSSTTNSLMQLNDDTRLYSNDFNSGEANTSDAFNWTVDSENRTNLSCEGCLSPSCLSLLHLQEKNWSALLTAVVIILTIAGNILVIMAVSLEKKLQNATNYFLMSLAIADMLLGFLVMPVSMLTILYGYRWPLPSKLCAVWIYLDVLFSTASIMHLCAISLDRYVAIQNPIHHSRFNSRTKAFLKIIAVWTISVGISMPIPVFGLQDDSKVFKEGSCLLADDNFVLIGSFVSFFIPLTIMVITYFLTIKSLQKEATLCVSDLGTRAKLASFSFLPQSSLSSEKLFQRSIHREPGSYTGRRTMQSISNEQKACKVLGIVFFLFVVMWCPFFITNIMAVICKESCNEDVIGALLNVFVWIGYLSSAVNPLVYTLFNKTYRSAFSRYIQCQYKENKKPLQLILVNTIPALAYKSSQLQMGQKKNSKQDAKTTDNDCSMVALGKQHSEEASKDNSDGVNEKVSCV", "method": "as §1"}, "M5": {"target": "T21, M5 (Homo sapiens, UniProt P08912)", "T21 construct": "gene CHRM5", "method": "as §1"}, "5-HT1B": {"target": "T22, 5-HT1B (Homo sapiens, UniProt P28222)", "T22 construct": "gene HTR1B", "method": "as §1"}, "Alpha2B": {"target": "T23, Alpha2B (Homo sapiens, UniProt P18089)", "T23 construct": "gene ADRA2B", "T23 sequence (P18089 whole entry)": "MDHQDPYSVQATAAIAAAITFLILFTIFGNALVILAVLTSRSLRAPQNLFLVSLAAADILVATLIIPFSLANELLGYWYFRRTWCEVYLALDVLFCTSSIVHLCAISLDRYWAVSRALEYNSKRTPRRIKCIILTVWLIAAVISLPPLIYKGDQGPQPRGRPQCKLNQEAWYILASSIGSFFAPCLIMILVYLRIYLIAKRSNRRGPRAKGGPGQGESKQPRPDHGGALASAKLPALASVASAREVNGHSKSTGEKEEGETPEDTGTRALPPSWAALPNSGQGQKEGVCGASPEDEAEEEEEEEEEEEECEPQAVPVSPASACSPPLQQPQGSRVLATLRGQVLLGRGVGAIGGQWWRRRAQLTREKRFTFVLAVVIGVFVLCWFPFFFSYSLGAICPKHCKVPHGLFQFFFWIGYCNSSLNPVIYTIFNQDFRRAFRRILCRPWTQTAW", "method": "as §1"}, "Alpha1A": {"target": "T24, Alpha1A (Homo sapiens, UniProt P35348)", "T24 construct": "gene ADRA1A", "method": "as §1"}, "KOR": {"target": "T25, KOR (Homo sapiens, UniProt P41145)", "T25 construct": "gene OPRK1", "T25 sequence (P41145 whole entry)": "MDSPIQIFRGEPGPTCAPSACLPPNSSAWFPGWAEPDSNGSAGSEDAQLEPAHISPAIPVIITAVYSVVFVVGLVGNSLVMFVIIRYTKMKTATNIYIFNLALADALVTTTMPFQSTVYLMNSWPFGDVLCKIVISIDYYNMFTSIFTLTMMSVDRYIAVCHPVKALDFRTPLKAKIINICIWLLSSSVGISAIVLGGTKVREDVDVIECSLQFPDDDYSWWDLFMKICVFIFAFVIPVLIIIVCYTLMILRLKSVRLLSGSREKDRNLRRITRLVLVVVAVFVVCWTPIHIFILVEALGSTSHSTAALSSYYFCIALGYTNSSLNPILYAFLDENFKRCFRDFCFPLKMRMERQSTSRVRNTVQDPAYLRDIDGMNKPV", "method": "as §1"}, "Sigma 2": {"target": "T26, Sigma 2 (Homo sapiens, UniProt Q5BJF2)", "T26 construct": "gene TMEM97", "method": "as §1"}}}
{"compound": "Cc1ncsc1-c1ccc([C@H](C)NC(=O)[C@@H]2C[C@@H](O)CN2C(=O)[C@@H](NC(=O)CNC(=O)c2ccc(F)c(-c3ccc(N4C[C@@H](C)N(C)[C@@H](C)C4)c(NC(=O)c4c[nH]c(=O)cc4C(F)(F)F)c3)c2)C(C)(C)C)cc1", "note": "[MS67]", "values": [{"measurement": "inhibition at 1 µM", "setting": "Alpha2A", "result": 21.3, "unit": "%"}, {"measurement": "inhibition at 1 µM", "setting": "DAT", "result": 40.8, "unit": "%"}, {"measurement": "inhibition at 1 µM", "setting": "5-HT5A", "result": 36.6, "unit": "%"}, {"measurement": "inhibition at 1 µM", "setting": "D5", "result": 22.1, "unit": "%"}, {"measurement": "inhibition at 1 µM", "setting": "5-HT7A", "result": 12, "unit": "%"}, {"measurement": "inhibition at 1 µM", "setting": "D4", "result": 5.81, "unit": "%"}, {"measurement": "inhibition at 1 µM", "setting": "Alpha1B", "result": 27.6, "unit": "%"}, {"measurement": "inhibition at 1 µM", "setting": "MOR", "result": 21.7, "unit": "%"}, {"measurement": "inhibition at 1 µM", "setting": "Alpha2C", "result": 1.35, "unit": "%"}, {"measurement": "inhibition at 1 µM", "setting": "Beta3", "result": 32, "unit": "%"}, {"measurement": "inhibition at 1 µM", "setting": "SERT", "result": 8.01, "unit": "%"}, {"measurement": "inhibition at 1 µM", "setting": "D3", "result": 22.9, "unit": "%"}, {"measurement": "inhibition at 1 µM", "setting": "5-HT1A", "result": 14.3, "unit": "%"}, {"measurement": "inhibition at 1 µM", "setting": "H2", "result": 19.7, "unit": "%"}, {"measurement": "inhibition at 1 µM", "setting": "Beta1", "result": 16.9, "unit": "%"}, {"measurement": "inhibition at 1 µM", "setting": "5-HT6", "result": 13.7, "unit": "%"}, {"measurement": "inhibition at 1 µM", "setting": "D2", "result": 25.5, "unit": "%"}, {"measurement": "inhibition at 1 µM", "setting": "5-HT2B", "result": 9.31, "unit": "%"}, {"measurement": "inhibition at 1 µM", "setting": "M3", "result": 23.9, "unit": "%"}, {"measurement": "inhibition at 1 µM", "setting": "5-HT2A", "result": 11, "unit": "%"}, {"measurement": "inhibition at 1 µM", "setting": "M5", "result": 2.36, "unit": "%"}, {"measurement": "inhibition at 1 µM", "setting": "5-HT1B", "result": 5.37, "unit": "%"}, {"measurement": "inhibition at 1 µM", "setting": "Alpha2B", "result": 21.1, "unit": "%"}, {"measurement": "inhibition at 1 µM", "setting": "Alpha1A", "result": 24.4, "unit": "%"}, {"measurement": "inhibition at 1 µM", "setting": "KOR", "result": 26.3, "unit": "%"}, {"measurement": "inhibition at 1 µM", "setting": "Sigma 2", "result": 66.6, "unit": "%"}]}
